Results published in patent US20130053430A1, “MODULATION OF CETP EXPRESSION” (Isis Pharmaceuticals, Inc., priority 2010, published 2013).
Strand notation (5' to 3'): a small letter for the sugar, then the base; units joined by * are phosphorothioate-linked, units joined directly phosphodiester-linked; [ ] holds rarer units or linkages, { } end groups; capitals alone tell only the bases. e = 2'-O-(2-methoxyethyl) (MOE); [5mC] = 5-methylcytosine; d = 2'-deoxy (DNA)

Tests used:
[1] = test system: human CETP mRNA; test: Antisense inhibition of human CETP mRNA in SW872 liposarcoma cells (Example 1); assay type: cell-based; conditions: 150 nM antisense oligonucleotide, lipofectin, ~24 hours, relative to untreated control cells
Method in brief: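 SW872 cells transfected (lipofectin) with 150 nM 5-10-5 MOE gapmer (phosphorothioate, 5-methylcytosine). After about 24 h, CETP mRNA measured by qRT-PCR, normalized to GAPDH; values are % inhibition versus untreated cells.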

[2] = test system: human CETP mRNA; test: Dose-dependent antisense inhibition of human CETP in SW872 liposarcoma cells (Example 2); assay type: cell-based; conditions: Lipofectin, ~16 hours (Example 2)
Description: (§1) Cells were plated at a density of 50,000 cells per well in a 24-well plate and transfected using Lipofectin reagent with 50 nM, 150 nM, and 300 nM concentrations of each antisense oligonucleotide. After approximately 16 hours, RNA was isolated from the cells and CETP mRNA levels were measured by quantitative real-time PCR. CETP mRNA levels were normalized to total RNA content, as measured by the house-keeping gene, GAPDH mRNA levels. Results are presented in Table 4 as percent inhibition of CETP, relative to untreated control cells.

[3] = test system: human CETP mRNA; test: Antisense inhibition of human CETP mRNA in primary hepatocytes from huCETP transgenic mice (Example 4); assay type: cell-based, mouse; conditions: cytofectin, ~24 hours
Method in brief: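 Primary hepatocytes from human CETP transgenic mice, 17,500 cells/well, transfected by cytofectin with 100 nM or 200 nM antisense oligonucleotide. After about 24 h, CETP mRNA quantified by real-time PCR, normalised to GAPDH, as percent inhibition versus untreated cells.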

[4] = test system: human CETP mRNA; test: Dose-dependent antisense inhibition of human CETP in SW872 liposarcoma cells (Example 3); assay type: cell-based; conditions: Lipofectin, ~16 hours (Example 3)
Description: as §1, with “ISIS 17291 ([…], 6-8-6 MOE (SEQ ID NO: 115)), ISIS 17302 ([…], 6-8-6 MOE (SEQ ID NO: 116)), and ISIS 17305 ([…], 6-8-6 MOE (SEQ ID NO: 117), first disclosed in U.S. Ser. No. 11/031,827 (incorporated by reference herein), were also tested under the same conditions. Cells” for “Cells”, “Table 5” for “Table 4”

Substance	% inhibition [1] [%]	percent inhibition of CETP ([2]; 50 nM) [%]	percent inhibition of CETP ([2]; 150 nM) [%]	percent inhibition of CETP ([2]; 300 nM) [%]	Percent inhibition of human CETP mRNA ([3]; 100 nM) [%]	Percent inhibition of human CETP mRNA ([3]; 200 nM) [%]	percent inhibition of CETP ([4]; 50 nM) [%]	percent inhibition of CETP ([4]; 150 nM) [%]	percent inhibition of CETP ([4]; 300 nM) [%]
ISIS 349483: 5-10-5 MOE gapmer CTCTGAGACATTCTTGTAGA (e[5mC]*eT*e[5mC]*eT*eG*dA*dG*dA*d[5mC]*dA*dT*dT*d[5mC]*dT*dT*eG*eT*eA*eG*eA)	85	100	98	85	77	63			
ISIS 349461: 5-10-5 MOE gapmer ATACTTGACTTGGCCAAGGA (eA*eT*eA*e[5mC]*eT*dT*dG*dA*d[5mC]*dT*dT*dG*dG*d[5mC]*d[5mC]*eA*eA*eG*eG*eA)	97	75	80	88	65	52			
ISIS 349506: 5-10-5 MOE gapmer CGCCTTTGCTGTTCATGAGG (e[5mC]*eG*e[5mC]*e[5mC]*eT*dT*dT*dG*d[5mC]*dT*dG*dT*dT*d[5mC]*dA*eT*eG*eA*eG*eG)	92	93	86	93	95	99			
ISIS 17305: CCAGTGGGCCTTTAGGATAG, 6-8-6 MOE; first disclosed in U.S. Ser. No. 11/031,827 (antisense; sugars from the 5' end e6 d8 e6, backbone and methylation of C not given here)							18	44	55
ISIS 17302: GCTTGCCTTCTGCTACAAGC, 6-8-6 MOE; first disclosed in U.S. Ser. No. 11/031,827 (antisense; sugars from the 5' end e6 d8 e6, backbone and methylation of C not given here)							0	41	45
ISIS 349490: 5-10-5 MOE gapmer CCTCTTGGAAGATTTCCTGG (e[5mC]*e[5mC]*eT*e[5mC]*eT*dT*dG*dG*dA*dA*dG*dA*dT*dT*dT*e[5mC]*e[5mC]*eT*eG*eG)	89	97	93	88	36	80			
ISIS 17291: GACAAGTGGCTGATCTGGAT, 6-8-6 MOE; first disclosed in U.S. Ser. No. 11/031,827 (antisense; sugars from the 5' end e6 d8 e6, backbone and methylation of C not given here)							35	0	0
ISIS 349465: 5-10-5 MOE gapmer GAGACATCAATGGACTTGGC (eG*eA*eG*eA*e[5mC]*dA*dT*d[5mC]*dA*dA*dT*dG*dG*dA*d[5mC]*eT*eT*eG*eG*e[5mC])	87	96	87	96	50	66			
ISIS 349513: 5-10-5 MOE gapmer TCCAGCTGTGAGCCTGGTGC (eT*e[5mC]*e[5mC]*eA*eG*d[5mC]*dT*dG*dT*dG*dA*dG*d[5mC]*d[5mC]*dT*eG*eG*eT*eG*e[5mC])	83	97	100	95	73	92	87	89	91
